Experimental data reported in US20140316005A1, “COMPOSITIONS FOR IMPROVED OXIDATIVE STATUS IN COMPANION ANIMALS” (HILL'S PET NUTRITION, INC., priority 2003, published 2014).
Read-outs that look alike come from different tables or passages of the source.

Settings: for Total gain / Weekly gain / Final wt.: kittens; for Total gain / Weekly gain: 10 weeks post-weaning; for Final wt.: end of 10-week trial
From the text: Dietary methionine was fed to growing kittens at three levels (0.77, 1.14, and 1.50%) to determine the effect of methionine on growth performance and antioxidant activity. Kittens were fed meat based, canned diets for 10 weeks post-weaning.

[1] = Week 5, dietary methionine 0.77 wt %
[2] = Week 5, dietary methionine 1.14 wt %
[3] = Week 5, dietary methionine 1.50 wt %
[4] = Week 10, dietary methionine 0.77 wt %
[5] = Week 10, dietary methionine 1.14 wt %
[6] = Week 10, dietary methionine 1.50 wt %
[7] = week 5, 1.50 wt % dietary methionine vs 0.77 wt %
[8] = week 10, 1.50 wt % dietary methionine vs 0.77 wt %

## CSCC[C@H](N)C(=O)O [methionine]
1.14 wt % and 1.50 wt % dietary methionine compared to 0.77 wt %
  Weekly weight gain, in words: increased
[1]
  ORAC (oxygen radical absorptive capacity): 2521.84
  Taurine (whole blood): 575.63
  Vitamin E (serum): 15.63
[2]
  ORAC (oxygen radical absorptive capacity): 2694.51
  Taurine (whole blood): 630.00
  Vitamin E (serum): 19.86
[3]
  ORAC (oxygen radical absorptive capacity): 3164.36
  Taurine (whole blood): 783.71
  Vitamin E (serum): 30.19
[4]
  ORAC (oxygen radical absorptive capacity): 2972.53
  Taurine (whole blood): 625.75
  Vitamin E (serum): 20.74
[5]
  ORAC (oxygen radical absorptive capacity): 2503.38
  Taurine (whole blood): 616.13
  Vitamin E (serum): 24.24
[6]
  ORAC (oxygen radical absorptive capacity): 3013.31
  Taurine (whole blood): 784.57
  Vitamin E (serum): 25.13
Dietary methionine 0.77 wt %
  Total gain: 950.00 g
  Weekly gain: 95.00 g
  Final wt.: 1518.75 g
Dietary methionine 1.14 wt %
  Total gain: 1075.00 g
  Weekly gain: 107.50 g
  Final wt.: 1612.50 g
Dietary methionine 1.50 wt %
  Total gain: 1221.43 g
  Weekly gain: 122.14 g
  Final wt.: 1792.86 g
[7]
  Blood taurine concentrations, in words: greater
  Oxygen radical absorptive capacity (ORAC), in words: greater
  Vitamin E concentrations, in words: greater
Week 10
  Oxygen radical absorptive capacity, in words: not increased
[8]
  Serum vitamin E concentrations, in words: greater
  Whole blood taurine concentrations, in words: greater
